Experiment [1] has as its system T-Rex 293 cell line SC3 cells having increased expression of androgen receptor protein due to exposure to doxycycline. Kind of experiment: Cellular growth inhibition assay, T-Rex 293 SC3 cells with doxycycline (CellTiter-Glo, 72 hours). It is filed as cell-based. The following applies: T-Rex 293 SC3 cells with increased androgen receptor expression due to doxycycline (10 ng/mL). In a few lines:
(§1)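 Growth inhibition is measured in an inducible AR-expressing T-Rex 293 clone, SC3, cultured with or without 10 ng/mL doxycycline in hormone-depleted medium. Test compounds are applied for 72 hours. GI50 values derive from CellTiter-Glo 2.0 signal fitted by four-parameter regression.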
(In general: ATP-based viability assays read luminescence as a measure of living cells.)

Experiment [2] concerns T47D cells. Description: Cellular growth inhibition assay for T47D cells (CellTiter-Glo, 72 hours). It counts as cell-based, human. To be noted: 72 hours treatment. In a few lines:
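Luminescence from CellTiter-Glo 2.0 after 72 h of compound exposure gives the viability signal. Cells grew in insulin-supplemented (0.2 units/mL) DMEM with 10% FBS and were treated one day after seeding at 0.5% DMSO. GI50 values come from four-parameter nonlinear regression.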

Experiment [3] relates to T-Rex 293 cell line SC3 cells lacking increased expression of androgen receptor protein. Kind of experiment: Cellular growth inhibition assay, T-Rex 293 SC3 cells without doxycycline (CellTiter-Glo, 72 hours). It counts as cell-based. The following applies: T-Rex 293 cell line SC3 cells not exposed to doxycycline (lacking increased androgen receptor expression). In a few lines:
as §1

Experiment [4] relates to VCaP cells. Description: Cellular growth inhibition assay for VCaP cells (CellTiter-Glo, 72 hours). It counts as cell-based, human. A digest of the protocol: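 Luminescent viability signal after 72 h of compound exposure gave GI50 values by four-parameter nonlinear regression. Compounds were added in 0.5% DMSO to cells plated 24 h earlier at 5000/well in DMEM containing 10% FBS.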

The structures appear in SMILES notation. Like-named read-outs stand apart in the source and are kept apart here. Some results are limits rather than exact numbers.

In general, GI50 refers to the concentration that inhibits growth by half. High values mean lower sensitivity of the cells, low ones greater sensitivity of the cells. With `Cc1sc2c(c1C)C(c1ccc(CCC[C@H]3CCCN(c4ccc(C(=O)N[C@H]5CC[C@H](Oc6ccc(C#N)c(Cl)c6)CC5)nn4)C3)cc1)=N[C@@H](C)c1nnc(C)n1-2` [I-323], the GI50 was less than 500 nM in experiment [1] (72 h); 500 to 1500 nM in experiment [2] (Homo sapiens, T47D, 72 h); 500 to 1500 nM in experiment [3] (72 h); less than 500 nM in experiment [4] (Homo sapiens, VCaP, 72 h).
On to `Cc1sc2c(c1C)C(c1ccc(CCO[C@@H]3CCCN(c4ccc(C(=O)N[C@H]5CC[C@H](Oc6ccc(C#N)c(Cl)c6)CC5)nn4)C3)cc1)=N[C@@H](C)c1nnc(C)n1-2` [I-324], for which the GI50 in experiment [1] (72 h) is less than 500 nM; in experiment [2] (Homo sapiens, T47D, 72 h) it was 1500 to 3000 nM; in experiment [3] (72 h), more than 3000 nM; in experiment [4] (Homo sapiens, VCaP, 72 h) it was more than 3000 nM.
Take `Cc1sc2c(c1C)C(c1ccc(CCO[C@H]3CCCN(c4ccc(C(=O)N[C@H]5CC[C@H](Oc6ccc(C#N)c(Cl)c6)CC5)nn4)C3)cc1)=N[C@@H](C)c1nnc(C)n1-2` [I-325]: the GI50 in experiment [1] (72 h) was less than 500 nM; in experiment [2] (Homo sapiens, T47D, 72 h), 1500 to 3000 nM; in experiment [3] (72 h), more than 3000 nM; in experiment [4] (Homo sapiens, VCaP, 72 h), 1500 to 3000 nM.
Regarding `Cc1sc2c(c1C)C(c1ccc(CC[C@H]3C[C@@]4(CCCN(c5ccc(C(=O)N[C@H]6CC[C@H](Oc7ccc(C#N)c(Cl)c7)CC6)nn5)C4)C3)cc1)=N[C@@H](C)c1nnc(C)n1-2` [I-326], the GI50 in experiment [1] was less than 500 nM; in experiment [2], less than 500 nM; in experiment [3] it was more than 3000 nM; in experiment [4], less than 500 nM.
As to `Cc1sc2c(c1C)C(c1ccc(CC[C@H]3C[C@]4(CCCN(c5ccc(C(=O)N[C@H]6CC[C@H](Oc7ccc(C#N)c(Cl)c7)CC6)nn5)C4)C3)cc1)=N[C@@H](C)c1nnc(C)n1-2` [I-327], the GI50 in experiment [1] is less than 500 nM; in experiment [2] it was 1500 to 3000 nM; in experiment [3], more than 3000 nM; in experiment [4], more than 3000 nM.
For `Cc1sc2c(c1C)C(c1ccc(OC[C@H]3CC[C@@]4(CCCN(c5ccc(C(=O)N[C@H]6CC[C@H](Oc7ccc(C#N)c(Cl)c7)CC6)nn5)C4)C3)nc1)=N[C@@H](Cc1ncco1)c1nnc(C)n1-2` [I-328], the GI50 is less than 500 nM in experiment [1] (72 h); 500 to 1500 nM in experiment [2] (Homo sapiens, T47D, 72 h); less than 500 nM in experiment [3] (72 h); less than 500 nM in experiment [4] (Homo sapiens, VCaP, 72 h).
On to `Cc1sc2c(c1C)C(c1ccc(OC[C@H]3CC[C@]4(CCCN(c5ccc(C(=O)N[C@H]6CC[C@H](Oc7ccc(C#N)c(Cl)c7)CC6)nn5)C4)C3)nc1)=N[C@@H](Cc1ncco1)c1nnc(C)n1-2` [I-329], for which the concentration for 50% growth inhibition (GI50) in experiment [1] (72 h) was less than 500 nM; in experiment [2] (Homo sapiens, T47D, 72 h) it was more than 3000 nM; in experiment [3] (72 h) it was more than 3000 nM; in experiment [4] (Homo sapiens, VCaP, 72 h), less than 500 nM.
On to `Cc1sc2c(c1C)C(c1ccc(OC[C@@H]3CC[C@@]4(CCCN(c5ccc(C(=O)N[C@H]6CC[C@H](Oc7ccc(C#N)c(Cl)c7)CC6)nn5)C4)C3)nc1)=N[C@@H](Cc1ncco1)c1nnc(C)n1-2` [I-330], for which the GI50 in experiment [1] (72 h) is less than 500 nM; in experiment [2] (Homo sapiens, T47D, 72 h), more than 3000 nM; in experiment [3] (72 h), more than 3000 nM; in experiment [4] (Homo sapiens, VCaP, 72 h), less than 500 nM.
As for `Cc1sc2c(c1C)C(c1ccc(CC(=O)N3CCC(c4ccc(C(=O)N[C@H]5CC[C@H](Oc6ccc(C#N)c(Cl)c6)CC5)nn4)CC3)cc1)=N[C@H](Cc1ncco1)c1nnc(C)n1-2` [I-331], the concentration for 50% growth inhibition (GI50) was more than 3000 nM in experiment [1] (72 h); 1500 to 3000 nM in experiment [2] (Homo sapiens, T47D, 72 h); more than 3000 nM in experiment [3] (72 h); less than 500 nM in experiment [4] (Homo sapiens, VCaP, 72 h).
Consider `Cc1sc2c(c1C)C(c1ccc(N(C)CC(=O)NCc3ccc(C(=O)N[C@H]4CC[C@H](Oc5ccc(C#N)c(Cl)c5)CC4)nn3)cc1)=N[C@@H](Cc1ncco1)c1nnc(C)n1-2` [I-332], for which the concentration for 50% growth inhibition (GI50) in experiment [1] (72 h) is more than 3000 nM; in experiment [2] (Homo sapiens, T47D, 72 h), more than 3000 nM; in experiment [3] (72 h), more than 3000 nM; in experiment [4] (Homo sapiens, VCaP, 72 h), more than 3000 nM.
As to `Cc1sc2c(c1C)C(c1ccc(N(C)CC(=O)NCc3ccc(C(=O)N[C@H]4CC[C@H](Oc5ccc(C#N)c(Cl)c5)CC4)nn3)cc1)=N[C@H](Cc1ncco1)c1nnc(C)n1-2` [I-333], the GI50 is more than 3000 nM in experiment [1] (72 h); 500 to 1500 nM in experiment [2] (Homo sapiens, T47D, 72 h); more than 3000 nM in experiment [3] (72 h); less than 500 nM in experiment [4] (Homo sapiens, VCaP, 72 h).
For the compound `Cc1sc2c(c1C)C(c1ccc(OC3CC4(CCN(c5ccc(C(=O)N[C@H]6CC[C@H](Oc7ccc(C#N)c(Cl)c7)CC6)nn5)CC4)C3)cc1)=N[C@@H](C)c1nnc(C)n1-2` [I-334], the 50% growth inhibitory concentration (GI50) was less than 500 nM in experiment [1] (72 h); less than 500 nM in experiment [2] (Homo sapiens, T47D, 72 h); 500 to 1500 nM in experiment [3] (72 h); less than 500 nM in experiment [4] (Homo sapiens, VCaP, 72 h).
Turning to `Cc1sc2c(c1C)C(c1ccc(CC3CC4(CCN(c5ccc(C(=O)N[C@H]6CC[C@H](Oc7ccc(C#N)c(Cl)c7)CC6)nn5)CC4)C3)cc1)=N[C@@H](C)c1nnc(C)n1-2` [I-335], the GI50 was less than 500 nM in experiment [1] (72 h); less than 500 nM in experiment [2] (Homo sapiens, T47D, 72 h); more than 3000 nM in experiment [3] (72 h); less than 500 nM in experiment [4] (Homo sapiens, VCaP, 72 h).
As to `Cc1sc2c(c1C)C(c1ccc(C#C[C@H]3C[C@@]4(CCCN(c5ccc(C(=O)N[C@H]6CC[C@H](Oc7ccc(C#N)c(Cl)c7)CC6)nn5)C4)C3)cc1)=N[C@@H](C)c1nnc(C)n1-2` [I-336], the 50% growth inhibitory concentration (GI50) was less than 500 nM in experiment [1] (72 h); less than 500 nM in experiment [2] (Homo sapiens, T47D, 72 h); less than 500 nM in experiment [3] (72 h); less than 500 nM in experiment [4] (Homo sapiens, VCaP, 72 h).
Turning to `Cc1sc2c(c1C)C(c1ccc(C#C[C@H]3C[C@]4(CCCN(c5ccc(C(=O)N[C@H]6CC[C@H](Oc7ccc(C#N)c(Cl)c7)CC6)nn5)C4)C3)cc1)=N[C@@H](C)c1nnc(C)n1-2` [I-337], the GI50 in experiment [1] (72 h) was less than 500 nM; in experiment [2] (Homo sapiens, T47D, 72 h), 500 to 1500 nM; in experiment [3] (72 h) it was 500 to 1500 nM; in experiment [4] (Homo sapiens, VCaP, 72 h), less than 500 nM.
For `Cc1sc2c(c1C)C(c1ccc(CC3CC4(CCCN(c5ccc(C(=O)N[C@H]6CC[C@H](Oc7ccc(C#N)c(Cl)c7)CC6)nn5)C4)C3)cc1)=N[C@@H](C)c1nnc(C)n1-2` (some centres unmarked) [I-338], the GI50 in experiment [1] (72 h) was less than 500 nM; in experiment [2] (Homo sapiens, T47D, 72 h), 500 to 1500 nM; in experiment [3] (72 h), more than 3000 nM; in experiment [4] (Homo sapiens, VCaP, 72 h), less than 500 nM.
On to `Cc1sc2c(c1C)C(c1ccc(OC[C@H]3C[C@]4(CCCN(c5ccc(C(=O)N[C@H]6CC[C@H](Oc7ccc(C#N)c(Cl)c7)CC6)nn5)C4)C3)cn1)=N[C@@H](Cc1ncco1)c1nnc(C)n1-2` [I-339], for which the GI50 in experiment [1] (72 h) is less than 500 nM; in experiment [2] (Homo sapiens, T47D, 72 h), less than 500 nM; in experiment [3] (72 h), less than 500 nM; in experiment [4] (Homo sapiens, VCaP, 72 h), less than 500 nM.
For `Cc1sc2c(c1C)C(c1ccc(OC[C@H]3C[C@@]4(CCCN(c5ccc(C(=O)N[C@H]6CC[C@H](Oc7ccc(C#N)c(Cl)c7)CC6)nn5)C4)C3)cn1)=N[C@@H](Cc1ncco1)c1nnc(C)n1-2` [I-340], the GI50 in experiment [1] (72 h) is less than 500 nM; in experiment [2] (Homo sapiens, T47D, 72 h), less than 500 nM; in experiment [3] (72 h) it was less than 500 nM; in experiment [4] (Homo sapiens, VCaP, 72 h), less than 500 nM.
For the compound `Cc1sc2c(c1C)C(c1ccc([C@@H]3CCN(C(=O)[C@@H]4CCCN(c5ccc(C(=O)N[C@H]6CC[C@H](Oc7ccc(C#N)c(Cl)c7)CC6)nn5)C4)C3)cc1)=N[C@@H](Cc1ncco1)c1nnc(C)n1-2` [I-341], the GI50 in experiment [1] (72 h) is more than 3000 nM; in experiment [2] (Homo sapiens, T47D, 72 h) it was more than 3000 nM; in experiment [3] (72 h) it was more than 3000 nM; in experiment [4] (Homo sapiens, VCaP, 72 h) it was more than 3000 nM.
With `Cc1sc2c(c1C)C(c1ccc([C@H]3CCN(C(=O)[C@@H]4CCCN(c5ccc(C(=O)N[C@H]6CC[C@H](Oc7ccc(C#N)c(Cl)c7)CC6)nn5)C4)C3)cc1)=N[C@@H](Cc1ncco1)c1nnc(C)n1-2` [I-342], the GI50 in experiment [1] (72 h) is less than 500 nM; in experiment [2] (Homo sapiens, T47D, 72 h), less than 500 nM; in experiment [3] (72 h), less than 500 nM; in experiment [4] (Homo sapiens, VCaP, 72 h) it was less than 500 nM.
